Tested on: DU-145
Assay: CellTiter-Glo cancer cell growth inhibition, DU-145
Format: cell-based
Settings: Homo sapiens, DU-145, 72 h
Description: The CellTiter-Glo® Luminescent Cell Viability Assay is a sensitive homogeneous method to determine the number of viable cells in culture, Detection is based on using the luciferase reaction to measure the amount of ATP from viable cells. The amount of ATP in cells correlates with cell viability. Within minutes after a loss of membrane integrity, cells lose the ability to synthesize ATP, and endogenous ATPases destroy any remaining ATP; thus the levels of ATP fall precipitously. The CellTiter-Glo® Reagent does three things upon addition to cells. It lyses cell membranes to release ATP; it inhibits endogenous ATPases, and it provides luciferin, luciferase and other reagents necessary to measure ATP using a bioluminescent reaction. The unique properties of a proprietary stable luciferase. There is a linear relationship (r2=0.99) between the luminescent signal and the number of cells from 0 to 50.000 cells per well.
All assays were performed by Reaction Biology Corporation (Malvern, Pa.) or ChemDiv, Inc. (San Diego, Calif.). […]
Conditions: 37° C., air 95%; HEPA-filtered carbon dioxide (CO2) 5%, humidified atmosphere. • Cells were grown in 175 cm^2 flasks to 80-90% of confluency. • Culture media was aspirated and cell layer was briefly rinsed with Versen solution to remove all traces of serum. • 2 mL of accutase was added to cells. • Flasks were retuned to incubator for 5 min to allow cell detachment. • Add 6.0 mL of complete growth medium. • Single cell suspension was created by gently pipetting. • Cells were counted using a Hematocytometer and a suspension with the desired cell concentration was prepared. […]
Stock solutions ([…]) were diluted with cell culture media to produce 500× serial dilutions and […] of final compound dilutions were added to cells in assay plates to screen a series of 10 doses starting at 100 mM. […] Luminescence intensity was measured for each well using the Tecan M 1000 microplate reader after 5 min of incubation with CellTiter-Glo Reagent. The number of viable cells in culture was determined based on quantitation of the ATP present in each culture well. […]

For `CN[C@@H]1C[C@H]2O[C@@](C)([C@@H]1OC)n1c3ccccc3c3c4c(c5c6ccccc6n2c5c31)C(=O)NC4` [Staurosporine, reference compound], which EC50 is on record?
Its EC50 is 4.8 nM.
